# In US20060069132A1, “Azolecarboxamide herbicides” (priority 2004, published 2006):
# Legend:
# barnyardgrass = assay: Test B pre-/postemergence herbicide test; type: in vivo, Echinochloa crus-galli
# In short: (§1)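 Response was scored visually 13 to 15 days after treatment against untreated greenhouse controls, 0 meaning no effect and 100 complete control. Formulations (solvent mixture plus surfactant) went onto soil after planting, onto foliage of 1- to 4-leaf plants, and onto 2-leaf plants in a flooded paddy set including rice and barnyardgrass.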
# Surinam grass = assay: Test B pre-/postemergence herbicide test; type: in vivo, Urochloa decumbens
# In short: as §1
# cocklebur = assay: Test B pre-/postemergence herbicide test; type: in vivo, Xanthium strumarium
# In short: as §1
# corn = assay: Test B pre-/postemergence herbicide test; type: in vivo, Zea mays
# In short: as §1
# large crabgrass = assay: Test B pre-/postemergence herbicide test; type: in vivo, Digitaria sanguinalis
# In short: as §1
# giant foxtail = assay: Test B pre-/postemergence herbicide test; type: in vivo, Setaria faberi
# In short: as §1
# lambsquarters = assay: Test B pre-/postemergence herbicide test; type: in vivo, Chenopodium album
# In short: as §1
# pigweed = assay: Test B pre-/postemergence herbicide test; type: in vivo, Amaranthus retroflexus
# In short: as §1
# velvetleaf = assay: Test B pre-/postemergence herbicide test; type: in vivo, Abutilon theophrasti
# In short: as §1
# blackgrass = assay: Test B postemergence herbicide test; type: in vivo, Alopecurus myosuroides; settings: scale 0 (no effect) to 100 (complete control); for Blackgrass plant response rating: postemergence, visual rating
# In short: (§2)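 Visual control ratings, 0–100 versus untreated controls, taken after 13 to 15 days in the greenhouse. Blackgrass received a postemergence spray at the 1- to 4-leaf stage (2–18 cm); ducksalad, umbrella sedge and barnyardgrass were flooded-paddy treated at 2 leaves.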
# wheat = assay: Test B postemergence herbicide test; type: in vivo, Triticum aestivum; set-up: key to Wheat plant response rating: 0 = no effect, 100 = complete control; settings: scale 0 (no effect) to 100 (complete control); for Wheat plant response rating: postemergence, visual rating
# In short: (§3)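 Formulated test chemicals went onto postemergence plants measuring 2 to 18 cm, at one to four leaves. For the paddy assay, species had reached two leaves. Scoring took place 13–15 days later by eye, relative to untreated plants, using 0 for no effect up to 100 for full control.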
# wild oat = assay: Test B postemergence herbicide test; type: in vivo, Avena fatua; settings: scale 0 (no effect) to 100 (complete control); for Oat, Wild plant response rating: postemergence, visual rating
# In short: as §3
# rice = assay: Test B flooded paddy test; type: in vivo, Oryza sativa; settings: 1000 g ai/ha, visual rating, scale 0 to 100 (0 no effect, 100 complete control), 13 to 15 days
# In short: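 Postemergence plants were sprayed with formulated test chemicals at 2 to 18 cm height (1- to 4-leaf stage); paddy species were grown to the 2-leaf stage. After 13 to 15 days in a greenhouse, injury was rated visually against untreated controls on a 0–100 scale (0 = no effect, 100 = complete control).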
# [1] = test system: small flower umbrella sedge; assay: Test B flooded paddy test; type: in vivo, Cyperus difformis; settings: 1000 g ai/ha, visual rating, scale 0 to 100 (0 no effect, 100 complete control), 13 to 15 days
# In short: as §2
# ducksalad = assay: Test B flooded paddy test; type: in vivo, Heteranthera limosa; settings: 1000 g ai/ha, visual rating, scale 0 to 100 (0 no effect, 100 complete control), 13 to 15 days
# In short: as §2
# [2] = 500 g ai/ha, visual rating 0-100, 0 no effect, 100 complete control, preemergence
# [3] = postemergence, 125 g ai/ha, visual rating, scale 0 (no effect) to 100 (complete control)
# [4] = postemergence, 500 g ai/ha, visual rating, scale 0 (no effect) to 100 (complete control)
# [5] = preemergence, 125 g ai/ha, 0 to 100 scale, 0 is no effect, 100 is complete control
# [6] = Postemergence, 500 g ai/ha, visual rating after 13 to 15 days, scale 0 (no effect) to 100 (complete control)
# [7] = Preemergence, 500 g ai/ha, scale 0 to 100
# [8] = Postemergence, 500 g ai/ha, visual rating after 13 to 15 days
structure (smiles),measurement,setting,value
CCN(CC)C(=O)c1cccc(NC(=O)c2cc(C(C)(C)C)nn2CC)n1 [Compound 145],"Plant response rating, Barnyardgrass",barnyardgrass; [2],100
same,Barnyardgrass plant response rating,barnyardgrass; [3],0
same,Barnyardgrass plant response rating,barnyardgrass; [4],40
same,"Plant response rating, Barnyardgrass",barnyardgrass; [5],70
same,"Plant response rating, Surinam Grass",Surinam grass; [2],80
same,Surinam Grass plant response rating,Surinam grass; [3],20
same,Surinam Grass plant response rating,Surinam grass; [4],20
same,"Plant response rating, Surinam Grass",Surinam grass; [5],30
same,"Plant response rating, Cocklebur",cocklebur; [2],20
same,Cocklebur plant response rating,cocklebur; [3],0
same,Cocklebur plant response rating,cocklebur; [4],30
same,"Plant response rating, Cocklebur",cocklebur; [5],0
same,"Plant response rating, Corn",corn; [2],10
same,Corn plant response rating,corn; [3],10
same,Corn plant response rating,corn; [4],20
same,"Plant response rating, Corn",corn; [5],0
same,"Plant response rating, Crabgrass, Large",large crabgrass; [2],100
same,"Crabgrass, Large plant response rating",large crabgrass; [3],10
same,"Crabgrass, Large plant response rating",large crabgrass; [4],10
same,"Plant response rating, Foxtail, Giant",giant foxtail; [2],100
same,"Foxtail, Giant plant response rating",giant foxtail; [3],30
same,"Foxtail, Giant plant response rating",giant foxtail; [4],40
same,"Plant response rating, Foxtail, Giant",giant foxtail; [5],80
same,"Plant response rating, Lambsquarters",lambsquarters; [2],100
same,Lambsquarters plant response rating,lambsquarters; [3],60
same,Lambsquarters plant response rating,lambsquarters; [4],70
same,"Plant response rating, Lambsquarters",lambsquarters; [5],80
same,"Plant response rating, Pigweed",pigweed; [2],100
same,Pigweed plant response rating,pigweed; [3],90
same,Pigweed plant response rating,pigweed; [4],100
same,"Plant response rating, Pigweed",pigweed; [5],100
same,"Plant response rating, Velvetleaf",velvetleaf; [2],100
same,Velvetleaf plant response rating,velvetleaf; [3],50
same,Velvetleaf plant response rating,velvetleaf; [4],60
same,"Plant response rating, Velvetleaf",velvetleaf; [5],80
same,Blackgrass plant response rating,blackgrass; 125 g ai/ha,10
same,Blackgrass plant response rating,blackgrass; 500 g ai/ha,10
same,Wheat plant response rating,wheat; 500 g ai/ha,20
same,"Oat, Wild plant response rating",wild oat; 125 g ai/ha,10
same,"Oat, Wild plant response rating",wild oat; 500 g ai/ha,30
same,Rice plant response rating,rice,40
same,"Sedge, Umbrella plant response rating",[1],90
same,Ducksalad plant response rating,ducksalad,70
CCCn1nc(C(C)(C)C)cc1C(=O)Nc1cccc(C(=O)NCC)c1 [Compound 57],"Plant response rating, Barnyardgrass",barnyardgrass; [6],20
same,Barnyardgrass plant response rating,barnyardgrass; [7],70
same,Barnyardgrass plant response rating,barnyardgrass; [3],10
same,"Plant response rating, Barnyardgrass",barnyardgrass; [5],50
same,"Plant response rating, Surinam Grass",Surinam grass; [6],20
same,Surinam Grass plant response rating,Surinam grass; [7],40
same,Surinam Grass plant response rating,Surinam grass; [3],10
same,"Plant response rating, Surinam Grass",Surinam grass; [5],20
same,"Plant response rating, Cocklebur",cocklebur; [6],60
same,Cocklebur plant response rating,cocklebur; [7],10
same,Cocklebur plant response rating,cocklebur; [3],30
same,"Plant response rating, Cocklebur",cocklebur; [5],0
same,"Plant response rating, Corn",corn; [6],20
same,Corn plant response rating,corn; [7],0
same,Corn plant response rating,corn; [3],20
same,"Plant response rating, Corn",corn; [5],0
same,"Plant response rating, Crabgrass, Large",large crabgrass; [6],20
same,"Crabgrass, Large plant response rating",large crabgrass; [7],100
same,"Crabgrass, Large plant response rating",large crabgrass; [3],10
same,"Plant response rating, Crabgrass, Large",large crabgrass; [5],40
same,"Plant response rating, Foxtail, Giant",giant foxtail; [6],30
same,"Foxtail, Giant plant response rating",giant foxtail; [7],100
same,"Foxtail, Giant plant response rating",giant foxtail; [3],20
same,"Plant response rating, Foxtail, Giant",giant foxtail; [5],20
same,"Plant response rating, Lambsquarters",lambsquarters; [6],90
same,Lambsquarters plant response rating,lambsquarters; [7],100
same,Lambsquarters plant response rating,lambsquarters; [3],70
same,"Plant response rating, Lambsquarters",lambsquarters; [5],100
same,"Plant response rating, Pigweed",pigweed; [6],80
same,Pigweed plant response rating,pigweed; [7],100
same,Pigweed plant response rating,pigweed; [3],70
same,"Plant response rating, Pigweed",pigweed; [5],90
same,"Plant response rating, Velvetleaf",velvetleaf; [6],30
same,Velvetleaf plant response rating,velvetleaf; [7],0
same,Velvetleaf plant response rating,velvetleaf; [3],20
same,"Plant response rating, Velvetleaf",velvetleaf; [5],0
same,"Plant response rating, Blackgrass",blackgrass; [8],10
same,Blackgrass plant response rating,blackgrass; 125 g ai/ha,0
same,"Plant response rating, Wheat",wheat; [8],10
same,Wheat plant response rating,wheat; 125 g ai/ha,10
same,"Plant response rating, Oat, Wild",wild oat; [8],30
same,"Oat, Wild plant response rating",wild oat; 125 g ai/ha,30
same,Rice plant response rating,rice,60
same,"Sedge, Umbrella plant response rating",[1],60
same,Ducksalad plant response rating,ducksalad,50
CCn1nc(C(C)(C)C)cc1C(=O)Nc1cccc(S(=O)(=O)C(F)(F)F)c1 [Compound 134],"Plant response rating, Barnyardgrass",barnyardgrass; [2],80
same,Barnyardgrass plant response rating,barnyardgrass; [3],20
same,Barnyardgrass plant response rating,barnyardgrass; [4],40
same,"Plant response rating, Barnyardgrass",barnyardgrass; [5],50
same,"Plant response rating, Surinam Grass",Surinam grass; [2],50
same,Surinam Grass plant response rating,Surinam grass; [3],20
same,Surinam Grass plant response rating,Surinam grass; [4],40
same,"Plant response rating, Surinam Grass",Surinam grass; [5],30
same,"Plant response rating, Cocklebur",cocklebur; [2],0
same,Cocklebur plant response rating,cocklebur; [3],80
same,Cocklebur plant response rating,cocklebur; [4],100
same,"Plant response rating, Cocklebur",cocklebur; [5],0
same,"Plant response rating, Corn",corn; [2],10
same,Corn plant response rating,corn; [3],20
same,Corn plant response rating,corn; [4],30
same,"Plant response rating, Corn",corn; [5],0
same,"Plant response rating, Crabgrass, Large",large crabgrass; [2],100
same,"Crabgrass, Large plant response rating",large crabgrass; [3],30
same,"Crabgrass, Large plant response rating",large crabgrass; [4],30
same,"Plant response rating, Crabgrass, Large",large crabgrass; [5],80
same,"Plant response rating, Foxtail, Giant",giant foxtail; [2],70
same,"Foxtail, Giant plant response rating",giant foxtail; [3],30
same,"Foxtail, Giant plant response rating",giant foxtail; [4],40
same,"Plant response rating, Foxtail, Giant",giant foxtail; [5],20
same,"Plant response rating, Lambsquarters",lambsquarters; [2],100
same,Lambsquarters plant response rating,lambsquarters; [3],80
same,Lambsquarters plant response rating,lambsquarters; [4],90
same,"Plant response rating, Lambsquarters",lambsquarters; [5],100
same,"Plant response rating, Pigweed",pigweed; [2],100
same,Pigweed plant response rating,pigweed; [3],80
same,Pigweed plant response rating,pigweed; [4],90
same,"Plant response rating, Pigweed",pigweed; [5],100
same,"Plant response rating, Velvetleaf",velvetleaf; [2],90
same,Velvetleaf plant response rating,velvetleaf; [3],30
same,Velvetleaf plant response rating,velvetleaf; [4],40
same,"Plant response rating, Velvetleaf",velvetleaf; [5],30
same,Blackgrass plant response rating,blackgrass; 125 g ai/ha,0
same,Blackgrass plant response rating,blackgrass; 500 g ai/ha,20
same,Wheat plant response rating,wheat; 125 g ai/ha,10
same,Wheat plant response rating,wheat; 500 g ai/ha,20
same,"Oat, Wild plant response rating",wild oat; 125 g ai/ha,30
same,"Oat, Wild plant response rating",wild oat; 500 g ai/ha,30
same,Rice plant response rating,rice,60
same,"Sedge, Umbrella plant response rating",[1],80
same,Ducksalad plant response rating,ducksalad,90
